In patent publication US20130137644A1, “CELL PENETRATING PEPTIDE CONJUGATES FOR DELIVERING OF NUCLEIC ACIDS INTO A CELL” (priority 2005, published 2013):

Assay: Body weight evolution, apparent toxicity during the efficacy experiment
Assay type: in vivo, NMRI nude mice
Conditions: 48.15 μmol/kg i.v. Q1D5; course of experiment 80 days
Description: Animal experiments were performed according to ethical guidelines of animal experimentation. The day of the first injection (6 days after the graft), mice were randomized in 7 groups. Mice were treated by intravenous injection in the lateral tail vein at a constant volume of 10 microL/g. Groups were as follows:
During the course of experiment body weight and tumor size were controlled every 2 or 3 days (except weekends). […] Mortality of animals was recorded every day except the weekend.
During the efficacy experiment, body weight was monitored twice weekly. Treatment toxicity was assessed based on clinical signs and body weight evolution.

CCc1c2c(nc3ccc(OC(=O)N4CCC(N5CCCCC5)CC4)cc13)-c1cc3c(c(=O)n1C2)COC(=O)[C@]3(O)CC [irinotecan, Irinotecan]
body weight loss: ~20%
